Data as given in patent US20150166664A1, “NOVEL THERAPEUTIC TREATMENTS WITH ANTI-HER2 ANTIBODIES HAVING A LOW FUCOSYLATION” (Glycotope GmbH, priority 2012, published 2015).

Legend:
SK-BR-3 cells = experiment: MTT proliferation assay; assay type: cell-based, human; settings: 20 nM, 4 days, positive control
Experimental: MTT assay is a non-radioactive assay based on the cleavage of the soluble yellow tetrazolium salt MTT (3-[4,5-Dimethylthiazol-2-yl]-2,5-diphenyltetrazolium bromide; Thiazolyl Blue) by mitochondrial dehydrogenases of viable cells. […] The absorption signal is a direct measure of viable cells in the culture.
Briefly, SK-BR-3 cells were grown for 2 days in 96-well flat bottom plates. […] Supernatant was completely removed and MTT was added. Cells were incubated for 2 hours with MTT at 37° C. in a humidified CO2 incubator. The supernatant was removed and cells were lysed using HCl and 2-propanol containing lysis buffer for 1 h at room temperature in the dark. Absorption at 570 nm/630 nm was measured in a plate reader Infinite F200 (Tecan Austria GmbH).

[1] = Prevention of infusion related reactions by pre-medication; assay type: in vivo, human; settings: pretreatment with paracetamol 1000 mg evening before and 1 h before, optionally methylprednisolone 125 mg 30 min before
Experimental: Without the use of steroids, IRRs occurred in all but one patient, at least once (grade 1 to 3). Therefore, it is recommended to use a pre-medication comprising and preferably consisting of steroids and paracetamol and to restrict the respective pre-medication to the first infusion and the single next infusion following an IRR. Preferably, paracetamol is given on the evening before and one hour before the infusion with the reduced […] anti-HER2 antibody. Steroids (for example 125 mg methylprednisolone) preferably will be administered 30 minutes before the infusion to the patient.

[2] = tested on: incurable, locally advanced, recurrent or metastatic solid tumors; settings: i.v. every 3 weeks, cited from earlier work

In the case of `CC(=O)O[C@H]1C(=O)[C@@]2(C)[C@H]([C@H](OC(=O)c3ccccc3)[C@]3(O)C[C@H](OC(=O)[C@H](O)[C@@H](NC(=O)c4ccccc4)c4ccccc4)C(C)=C1C3(C)C)[C@]1(OC(C)=O)CO[C@@H]1C[C@@H]2O` [Taxol, paclitaxel], the “proliferation compared to the medium control” value (SK-BR-3 cells) was 6%.
In the case of `CC(=O)Nc1ccc(O)cc1` [paracetamol, N-(4-hydroxyphenyl)acetamide], the “patients who did not show any IRR upon Fuc− trastuzumab infusion” value [1] was ~50%.
In the case of “pertuzumab: anti-HER2 antibody, HER dimerisation inhibitor”, the confirmed partial responses [2] is given as 2 Patients and the tumor regression ([2]; patients evaluable for response) is given as 3 of 20.
